In publication PMC4890880 (ACS infectious diseases, 2016):
Read-outs that look alike come from different tables or passages of the source.

Experiments:
HepG2-A16-CD81EGFP cells = settings: for IC50: read-out: Tox_IC50, HepG2 cytotoxicity
[1] = tested on: Plasmodium berghei (Pb-Luc) exoerythrocytic-stage parasites; settings: for normalised signal at concentration 10 (first series): concentration 10, first series of dose columns; for normalised signal at concentration 10 (second series): concentration 10, second series of dose columns; for IC50: read-out: PbLuc_IC50; for normalized signal at concentration 0.000508053 / normalized signal at concentration 0.00152416 / normalized signal at concentration 0.00457247 / normalized signal at concentration 0.0137174 / normalized signal at concentration 0.0411523 / normalized signal at concentration 0.123457 / normalized signal at concentration 0.37037 / normalized signal at concentration 1.11111 / normalized signal at concentration 3.33333 / normalized signal at concentration 10: fraction of control
[2] = sheet "2nd round", Broad compounds, dose response top concentration 10
[3] = sheet 2nd round, maximal inhibition in dose response
[4] = second series of columns (replicate)
[5] = first series of dose-response columns
[6] = sheet 2nd round, Broad compounds, dose response
[7] = second series of dose-response columns

SMILES: C[C@@H]1CCCCO[C@H](CN(C)S(=O)(=O)c2ccc(F)cc2)[C@H](C)CN([C@H](C)CO)C(=O)c2cc(N(C)C)ccc2O1 [BRD-K77041516-001-01-2]
- IC50 (HepG2-A16-CD81EGFP cells; sheet "2nd round"): > 10 µM
- Tox_max_inhibition (%) (HepG2-A16-CD81EGFP cells; sheet "2nd round"): 4.38%
- normalised signal at concentration 0.000508053 (first series) [1]: 1.187
- normalised signal at concentration 0.000508053 (second series) [1]: 0.9225
- normalised signal at concentration 0.00152416 (first series) [1]: 0.8332
- normalised signal at concentration 0.00152416 (second series) [1]: 0.8694
- normalised signal at concentration 0.00457247 (first series) [1]: 0.9468
- normalised signal at concentration 0.00457247 (second series) [1]: 0.8206
- normalised signal at concentration 0.0137174 (first series) [1]: 0.8125
- normalised signal at concentration 0.0137174 (second series) [1]: 0.9272
- normalised signal at concentration 0.0411523 (first series) [1]: 0.9511
- normalised signal at concentration 0.0411523 (second series) [1]: 0.9568
- normalised signal at concentration 0.123457 (first series) [1]: 1.006
- normalised signal at concentration 0.123457 (second series) [1]: 0.7947
- normalised signal at concentration 0.37037 (first series) [1]: 0.8766
- normalised signal at concentration 0.37037 (second series) [1]: 1.201
- normalised signal at concentration 1.11111 (first series) [1]: 1.15
- normalised signal at concentration 1.11111 (second series) [1]: 1.082
- normalised signal at concentration 3.33333 (first series) [1]: 0.9005
- normalised signal at concentration 3.33333 (second series) [1]: 1.135
- normalised signal at concentration 10 (first series) [1]: 0.8572
- normalised signal at concentration 10 (second series) [1]: 0.9617
- IC50 [1, 2]: > 10 µM
- PbLuc_max_inhibition (%) ([1]; sheet "2nd round"): 21%

SMILES: C[C@@H]1CCCCO[C@H](CN(C)S(=O)(=O)c2ccc(F)cc2)[C@H](C)CN([C@@H](C)CO)C(=O)c2cc(N(C)C)ccc2O1 [BRD-K77718491-001-01-4]
- IC50 (HepG2-A16-CD81EGFP cells; sheet "2nd round"): > 10 µM
- Tox_max_inhibition (%) (HepG2-A16-CD81EGFP cells; sheet "2nd round"): 7%
- normalised signal at concentration 0.000508053 (first series) [1]: 0.8436
- normalised signal at concentration 0.000508053 (second series) [1]: 0.9419
- normalised signal at concentration 0.00152416 (first series) [1]: 1.131
- normalised signal at concentration 0.00152416 (second series) [1]: 0.8322
- normalised signal at concentration 0.00457247 (first series) [1]: 0.8284
- normalised signal at concentration 0.00457247 (second series) [1]: 0.9071
- normalised signal at concentration 0.0137174 (first series) [1]: 1.006
- normalised signal at concentration 0.0137174 (second series) [1]: 0.921
- normalised signal at concentration 0.0411523 (first series) [1]: 0.8082
- normalised signal at concentration 0.0411523 (second series) [1]: 0.9497
- normalised signal at concentration 0.123457 (first series) [1]: 0.9873
- normalised signal at concentration 0.123457 (second series) [1]: 0.8645
- normalised signal at concentration 0.37037 (first series) [1]: 0.8615
- normalised signal at concentration 0.37037 (second series) [1]: 0.9228
- normalised signal at concentration 1.11111 (first series) [1]: 0.9968
- normalised signal at concentration 1.11111 (second series) [1]: 0.8769
- normalised signal at concentration 3.33333 (first series) [1]: 0.7967
- normalised signal at concentration 3.33333 (second series) [1]: 1.06
- normalised signal at concentration 10 (first series) [1]: 0.9825
- normalised signal at concentration 10 (second series) [1]: 0.8275
- IC50 [1, 2]: > 10 µM
- PbLuc_max_inhibition (%) ([1]; sheet "2nd round"): 20%

SMILES: CO[C@H]1CN(C)C(=O)c2cc(NC(=O)c3cccc(F)c3)ccc2OC[C@H](C)N(C)C[C@H]1C [BRD-K79512815-001-01-8]
- IC50 (HepG2-A16-CD81EGFP cells; sheet 2nd round): > 10 µM
- Tox_max_inhibition (%) (HepG2-A16-CD81EGFP cells; [3]): 6%
- normalized signal at concentration 0.000508053 ([1]; first series of columns): 0.92
- normalized signal at concentration 0.00152416 ([1]; first series of columns): 0.8929
- normalized signal at concentration 0.00457247 ([1]; first series of columns): 0.8757
- normalized signal at concentration 0.0137174 ([1]; first series of columns): 1.1664
- normalized signal at concentration 0.0411523 ([1]; first series of columns): 0.9194
- normalized signal at concentration 0.123457 ([1]; first series of columns): 0.814
- normalized signal at concentration 0.37037 ([1]; first series of columns): 0.9475
- normalized signal at concentration 1.11111 ([1]; first series of columns): 0.9407
- normalized signal at concentration 3.33333 ([1]; first series of columns): 0.9302
- normalized signal at concentration 10 ([1]; first series of columns): 0.6026
- IC50 ([1]; sheet 2nd round, Pb-Luc exoerythrocytic stage, 10-point dose response, top concentration 10): > 10 µM
- normalized signal at concentration 0.000508053 [1, 4]: 0.9673
- normalized signal at concentration 0.00152416 [1, 4]: 1.022
- normalized signal at concentration 0.00457247 [1, 4]: 0.9573
- normalized signal at concentration 0.0137174 [1, 4]: 0.903
- normalized signal at concentration 0.0411523 [1, 4]: 0.8874
- normalized signal at concentration 0.123457 [1, 4]: 0.788
- normalized signal at concentration 0.37037 [1, 4]: 0.9616
- normalized signal at concentration 1.11111 [1, 4]: 0.8772
- normalized signal at concentration 3.33333 [1, 4]: 0.9295
- normalized signal at concentration 10 [1, 4]: 0.8924
- PbLuc_max_inhibition (%) [1, 3]: 40%

SMILES: COCC(=O)N1C[C@H](C)[C@@H](OC)CN(C)C(=O)c2ccc(NC(=O)Nc3cccc(F)c3)cc2OC[C@@H]1C [BRD-K86826411-001-01-1]
- IC50 (HepG2-A16-CD81EGFP cells; sheet 2nd round): > 10 µM
- Tox_max_inhibition (%) (HepG2-A16-CD81EGFP cells; [3]): 13%
- normalized signal at concentration 10 [1, 5]: 0.9867
- normalized signal at concentration 0.000508053 ([1]; first series): 0.8374
- normalized signal at concentration 0.00152416 ([1]; first series): 0.9593
- normalized signal at concentration 0.00457247 ([1]; first series): 1.078
- normalized signal at concentration 0.0137174 ([1]; first series): 1.13
- normalized signal at concentration 0.0411523 ([1]; first series): 1.203
- normalized signal at concentration 0.123457 ([1]; first series): 1.151
- normalized signal at concentration 0.37037 ([1]; first series): 1.155
- normalized signal at concentration 1.11111 ([1]; first series): 1.129
- normalized signal at concentration 3.33333 ([1]; first series): 1.057
- IC50 [1, 6]: > 10 µM
- normalized signal at concentration 10 [1, 7]: 0.6676
- normalized signal at concentration 0.000508053 ([1]; second series): 0.905
- normalized signal at concentration 0.00152416 ([1]; second series): 1.0576
- normalized signal at concentration 0.00457247 ([1]; second series): 1.018
- normalized signal at concentration 0.0137174 ([1]; second series): 1.011
- normalized signal at concentration 0.0411523 ([1]; second series): 0.9885
- normalized signal at concentration 0.123457 ([1]; second series): 1.0489
- normalized signal at concentration 0.37037 ([1]; second series): 0.9498
- normalized signal at concentration 1.11111 ([1]; second series): 1.1227
- normalized signal at concentration 3.33333 ([1]; second series): 1.155
- PbLuc_max_inhibition (%) [1, 3]: 33%

SMILES: CCc1csc(N2[C@H](CO)[C@H](c3ccccc3)[C@@H]2CNC)n1 [BRD-K87640608-001-01-8]
- IC50 (HepG2-A16-CD81EGFP cells; sheet 2nd round): > 10 µM
- Tox_max_inhibition (%) (HepG2-A16-CD81EGFP cells; [3]): 3.76%
- normalized signal at concentration 10 [1, 5]: 0.6764
- normalized signal at concentration 0.000508053 ([1]; first series): 0.8428
- normalized signal at concentration 0.00152416 ([1]; first series): 0.8502
- normalized signal at concentration 0.00457247 ([1]; first series): 0.7149
- normalized signal at concentration 0.0137174 ([1]; first series): 0.7931
- normalized signal at concentration 0.0411523 ([1]; first series): 0.9257
- normalized signal at concentration 0.123457 ([1]; first series): 0.8195
- normalized signal at concentration 0.37037 ([1]; first series): 0.9077
- normalized signal at concentration 1.11111 ([1]; first series): 1.056
- normalized signal at concentration 3.33333 ([1]; first series): 0.9058
- IC50 [1, 6]: > 10 µM
- normalized signal at concentration 10 [1, 7]: 0.7611
- normalized signal at concentration 0.000508053 ([1]; second series): 1.024
- normalized signal at concentration 0.00152416 ([1]; second series): 0.9242
- normalized signal at concentration 0.00457247 ([1]; second series): 1.045
- normalized signal at concentration 0.0137174 ([1]; second series): 0.9989
- normalized signal at concentration 0.0411523 ([1]; second series): 0.8698
- normalized signal at concentration 0.123457 ([1]; second series): 0.9345
- normalized signal at concentration 0.37037 ([1]; second series): 1.174
- normalized signal at concentration 1.11111 ([1]; second series): 1.035
- normalized signal at concentration 3.33333 ([1]; second series): 0.7843
- PbLuc_max_inhibition (%) [1, 3]: 32%

SMILES: COc1ccccc1S(=O)(=O)N(C)C[C@@H]1OCc2ccccc2-c2ccccc2C(=O)N([C@H](C)CO)C[C@@H]1C [BRD-K88384060-001-01-3]
- IC50 (HepG2-A16-CD81EGFP cells; sheet "2nd round"): > 10 µM
- Tox_max_inhibition (%) (HepG2-A16-CD81EGFP cells; sheet "2nd round"): 2.77%
- normalised signal at concentration 0.000508053 (first series) [1]: 0.762
- normalised signal at concentration 0.000508053 (second series) [1]: 0.8443
- normalised signal at concentration 0.00152416 (first series) [1]: 0.9256
- normalised signal at concentration 0.00152416 (second series) [1]: 0.8309
- normalised signal at concentration 0.00457247 (first series) [1]: 0.8786
- normalised signal at concentration 0.00457247 (second series) [1]: 0.8245
- normalised signal at concentration 0.0137174 (first series) [1]: 0.8282
- normalised signal at concentration 0.0137174 (second series) [1]: 0.879
- normalised signal at concentration 0.0411523 (first series) [1]: 0.9277
- normalised signal at concentration 0.0411523 (second series) [1]: 0.9618
- normalised signal at concentration 0.123457 (first series) [1]: 0.8826
- normalised signal at concentration 0.123457 (second series) [1]: 1.0267
- normalised signal at concentration 0.37037 (first series) [1]: 0.7577
- normalised signal at concentration 0.37037 (second series) [1]: 1.11
- normalised signal at concentration 1.11111 (first series) [1]: 0.8863
- normalised signal at concentration 1.11111 (second series) [1]: 0.7661
- normalised signal at concentration 3.33333 (first series) [1]: 0.8204
- normalised signal at concentration 3.33333 (second series) [1]: 0.8055
- normalised signal at concentration 10 (first series) [1]: 0.8642
- normalised signal at concentration 10 (second series) [1]: 0.7248
- IC50 [1, 2]: > 10 µM
- PbLuc_max_inhibition (%) ([1]; sheet "2nd round"): 28%
